Experimental data reported in patent publication US20240116985A1, “STAPLED PEPTIDES AND METHODS THEREOF” (priority 2020, published 2024).
Like-named read-outs stand apart in the source and are kept apart here.

Experiments:
[1] = target: T1, full-length beta-Catenin (Uniprot ID P35222) (Homo sapiens, UniProt P35222); experiment: Fluorescence polarization IC50 (beta-catenin / 5FAM-TCF4 10-53 competition); type: binding
T1 construct: 10 nM full-length beta-Catenin (Uniprot ID P35222)
T1 sequence (P35222 1-781): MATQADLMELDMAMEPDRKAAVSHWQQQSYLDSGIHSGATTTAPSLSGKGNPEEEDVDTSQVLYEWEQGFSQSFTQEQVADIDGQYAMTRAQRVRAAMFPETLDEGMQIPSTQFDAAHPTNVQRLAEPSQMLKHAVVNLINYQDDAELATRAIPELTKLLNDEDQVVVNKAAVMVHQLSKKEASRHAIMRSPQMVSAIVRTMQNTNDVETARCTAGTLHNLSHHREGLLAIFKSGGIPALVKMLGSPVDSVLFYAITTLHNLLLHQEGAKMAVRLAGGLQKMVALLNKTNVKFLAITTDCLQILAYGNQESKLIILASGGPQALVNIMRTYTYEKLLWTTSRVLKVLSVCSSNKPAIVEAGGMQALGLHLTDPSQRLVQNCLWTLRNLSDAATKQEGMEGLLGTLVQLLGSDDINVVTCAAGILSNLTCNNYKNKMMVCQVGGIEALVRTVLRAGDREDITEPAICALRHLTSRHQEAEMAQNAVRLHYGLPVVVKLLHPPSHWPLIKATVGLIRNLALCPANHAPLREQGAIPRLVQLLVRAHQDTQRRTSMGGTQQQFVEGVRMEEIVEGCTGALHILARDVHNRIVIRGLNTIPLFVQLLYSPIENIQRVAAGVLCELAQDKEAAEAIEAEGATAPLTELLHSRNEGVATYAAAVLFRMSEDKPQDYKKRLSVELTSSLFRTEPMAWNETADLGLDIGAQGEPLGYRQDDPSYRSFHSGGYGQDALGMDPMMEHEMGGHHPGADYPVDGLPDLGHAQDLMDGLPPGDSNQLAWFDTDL

CHI Log D procedure = type: physicochemical; details: for chromatographic logD: pH 7.4, CHI Log D
[2] = fluorescence polarization, read-out: beta-Catenin FP IC50
[3] = Table E2-1, read-out: beta-Catenin FP IC50

SMILES | IC50 [1, 2] [nM] | IC50 ([1]; read-out: FP EC50) [nM] | CHI Log D (CHI Log D procedure; pH 7.4) | chromatographic logD (CHI Log D procedure) | also measured
CC[C@H](C)[C@@H]1NC(=O)[C@H](CC(=O)O)NC(=O)[C@]2(CC=CCCCC3(CCCC=CCCCCCC[C@@](C)(C(=O)N[C@@H](Cc4ccccc4OC)C(=O)N[C@@H](Cc4csc5ccccc45)C(=O)N[C@@H](CCC(N)=O)C(N)=O)NC(=O)[C@H](CC(N)=O)NC(=O)[C@H](Cc4ccccc4)NC(=O)[C@H](C)NC(=O)[C@H](C)NC(=O)[C@H](CC(=O)O)NC(=O)[C@H](CC(=O)O)NC3=O)NC1=O)CCCN2C(C)=O (stereo partly drawn) [I-549, Ac-PL3-Asp-Ile-B5-Asp-Asp-Ala-Ala-Phe-Asn-S8-2OMeF-BztA-Gln-NH2] | 71 | 71 | 2.291 | – | –
CC[C@H](C)[C@@H]1NC(=O)[C@H](CC(=O)O)NC(=O)[C@]2(CC=CCCCC3(CCCC=CCCCCCC[C@@](C)(C(=O)N[C@@H](Cc4cccc(F)c4)C(=O)N[C@@H](Cc4csc5ccccc45)C(=O)N[C@@H](CCC(N)=O)C(N)=O)NC(=O)[C@H](CCC(N)=O)NC(=O)[C@H](Cc4cccs4)NC(=O)[C@H](C)NC(=O)[C@H](C)NC(=O)[C@H](CCC(=O)O)NC(=O)[C@H](CC(=O)O)NC3=O)NC1=O)CCCN2C(C)=O (stereo partly drawn) [I-412, Ac-PL3-Asp-Ile-B5-Asp-Glu-Ala-Ala-2Thi-Gln-S8-3FF-BztA-Gln-NH2] | 92 | – | – | 2.65 | –
CC(=O)N1CCC[C@]12CC=CCCCC1(CCCC=CCCCCCC[C@@](C)(C(=O)N[C@@H](Cc3ccccc3)C(=O)N[C@@H](Cc3c[nH]c4ccccc34)C(=O)N[C@@H](CCC(N)=O)C(N)=O)NC(=O)[C@H](C(C)C)NC(=O)[C@H](Cc3ccccc3)NC(=O)[C@H](C)NC(=O)[C@H](C)NC(=O)[C@@H](CCC(=O)O)NC(=O)[C@H](CC(=O)O)NC1=O)NC(=O)[C@H](C)NC(=O)[C@H](CC(=O)O)NC2=O (stereo partly drawn) [I-182, Ac-PL3-Asp-Ala-B5-Asp-DGlu-Ala-Ala-Phe-Val-S8-Phe-Trp-Gln-NH2] | – | – | – | 2.07 | IC50 [1, 3]: 2800 nM
CC[C@H](C)[C@@H]1NC(=O)[C@H](CC(=O)O)NC(=O)[C@]2(CC=CCCCC3(CCCC=CCCCCCC[C@@](C)(C(=O)N[C@@H](Cc4ccccc4)C(=O)N[C@@H](Cc4csc5ccccc45)C(=O)N[C@@H](CCC(N)=O)C(N)=O)NC(=O)[C@H](CCC(N)=O)NC(=O)[C@H](Cc4ccccc4)NC(=O)[C@H](C)NC(=O)[C@H](C)NC(=O)[C@H](CN(CC)CC(=O)O)NC(=O)[C@H](CC(=O)O)NC3=O)NC1=O)CCCN2C(C)=O (stereo partly drawn) [I-609, Ac-PL3-Asp-Ile-B5-Asp-EtGa-Ala-Ala-Phe-Gln-S8-Phe-BztA-Gln-NH2] | 80 | 80 | 2.534 | – | IC50 ([1]; read-out: bCat FP IC50): 80 nM; logD (CHI Log D procedure; pH 7.4): 2.5
COc1ccccc1C[C@H](NC(=O)[C@]1(C)CCCCCCC=CCCCC2(CCCC=CC[C@]3(CCCN3C(C)=O)C(=O)N[C@@H](CC(=O)O)C(=O)N[C@@H](C)C(=O)N2)C(=O)N[C@@H](CC(=O)O)C(=O)N[C@@H](CCC(=O)O)C(=O)N[C@@H](C)C(=O)N[C@@H](C)C(=O)N[C@@H](Cc2ccccc2)C(=O)N[C@@H](CCC(N)=O)C(=O)N1)C(=O)N[C@@H](Cc1csc2ccccc12)C(=O)N[C@@H](CCC(N)=O)C(N)=O (stereo partly drawn) [I-526, Ac-PL3-Asp-Ala-B5-Asp-Glu-Ala-Ala-Phe-Gln-S8-2OMeF-BztA-Gln-NH2] | 56 | 56 | 2.049 | – | –
CC(=O)N1CCC[C@]12CC=CCCCC1(CCCC=CCCCCCC[C@@](C)(C(=O)N[C@@H](Cc3ccccc3)C(=O)N[C@@H](Cc3csc4ccccc34)C(=O)N[C@@H](CCC(N)=O)C(=O)NC(C)(C)C(N)=O)NC(=O)[C@H](CC(N)=O)NC(=O)[C@H](Cc3ccccc3)NC(=O)[C@H](C)NC(=O)[C@H](C)NC(=O)[C@H](CCC(=O)O)NC(=O)[C@H](CC(=O)O)NC1=O)NC(=O)[C@H](CC(C)C)NC(=O)[C@H](CC(=O)O)NC2=O (stereo partly drawn) [I-736, Ac-PL3-Asp-Leu-B5-Asp-Glu-Ala-Ala-Phe-Asn-S8-Phe-BztA-Gln-Aib-NH2] | 440 | 440 | 2.722 | – | –

Continued, in another order:

IC50 [1, 2] [nM] | IC50 ([1]; read-out: FP EC50) [nM] | CHI Log D (CHI Log D procedure; pH 7.4) | chromatographic logD (CHI Log D procedure) | SMILES | also measured
2170 | 2170 | 2.0045 | – | CC(=O)N1CCC[C@]12CC=CCCCC1(CCCC=CCCCCCC[C@@](C)(C(=O)N[C@@H](Cc3ccccc3)C(=O)N[C@@H](Cc3csc4ccccc34)C(=O)N[C@@H](CCC(N)=O)C(N)=O)NC(=O)[C@H](CC(N)=O)NC(=O)[C@H](Cc3ccccc3C)NC(=O)[C@H](C)NC(=O)[C@H](C)NC(=O)[C@H](CCC(=O)O)NC(=O)[C@H](CC(=O)O)NC1=O)NC(=O)[C@H](C)NC(=O)[C@H](CC(=O)O)NC2=O (stereo partly drawn) [I-456, Ac-PL3-Asp-Ala-B5-Asp-Glu-Ala-Ala-2MeF-Asn-S8-Phe-BztA-Gln-NH2] | –
5000 | – | – | 1.87 | CC[C@H](C)[C@@H]1NC(=O)[C@H](CC(=O)O)NC(=O)[C@]2(CC=CCCCC3(CCCC=CCCCCCC[C@@](C)(C(=O)N[C@@H](Cc4ccccc4)C(=O)N[C@@H](Cc4csc5ccccc45)C(=O)N[C@@H](CCC(N)=O)C(N)=O)NC(=O)[C@H](CCC(N)=O)NC(=O)[C@H](Cc4ccccc4)NC(=O)[C@H](C)NC(=O)[C@H](C)NC(=O)[C@H](CCC(=O)O)NC(=O)C[C@@H](C(=O)O)NC3=O)NC1=O)CCCN2C(C)=O (stereo partly drawn) [I-673, Ac-PL3-Asp-Ile-B5-isoAsp-Glu-Ala-Ala-Phe-Gln-S8-Phe-BztA-Gln-NH2] | –
– | – | – | 2.02 | CC(=O)N1CCC[C@]12CC=CCCCC1(CCCC=CCCCCCC[C@@](C)(C(=O)N[C@@H](Cc3ccccc3)C(=O)N[C@@H](Cc3c[nH]c4ccccc34)C(=O)N[C@@H](CCC(N)=O)C(N)=O)NC(=O)[C@H](C(C)C)NC(=O)[C@H](Cc3ccc(F)cc3)NC(=O)[C@H](C)NC(=O)[C@H](C)NC(=O)[C@H](CC(=O)O)NC(=O)[C@H](CC(=O)O)NC1=O)NC(=O)[C@H](C)NC(=O)[C@H](CC(=O)O)NC2=O (stereo partly drawn) [I-266, Ac-PL3-Asp-Ala-B5-Asp-Asp-Ala-Ala-4FF-Val-S8-Phe-Trp-Gln-NH2] | IC50 [1, 3]: 5000 nM
– | – | 1.975 | – | CC(=O)N1CCC[C@]12CC=CCCCC1(CCCC=CCCCOC(=O)N3CC[C@@](C(=O)N[C@@H](Cc4ccsc4)C(=O)N[C@@H](Cc4csc5ccccc45)C(=O)N[C@@H](Cc4ccc(O)cc4)C(N)=O)(C3)NC(=O)[C@H](CC(N)=O)NC(=O)[C@H](Cc3ccccc3)NC(=O)[C@H](C)NC(=O)[C@H](C)NC(=O)[C@H](CN(CC(=O)O)CC(F)(F)F)NC(=O)[C@H](CC(=O)O)NC1=O)NC(=O)[C@H](CC(C)(C)C)NC(=O)[C@H](CC(=O)O)NC2=O (stereo partly drawn) [I-952, Ac-PL3-Asp-Npg-B5-Asp-TfeGA-Ala-Ala-Phe-Asn-PyrS2-3Thi-BztA-Tyr-NH2] | IC50 ([1]; fluorescence polarization, beta-catenin, read-out: FP EC50): 1210 nM; IC50 ([1]; read-out: beta-Catenin FP IC50): 1210 nM
69 | 69 | 2.563 | – | CC(=O)N1CCC[C@]12CC=CCCCC1(CCCC=CCCCCCC[C@@](C)(C(=O)N[C@@H](Cc3ccccc3)C(=O)N[C@@H](Cc3csc4ccccc34)C(=O)N[C@@H](Cc3c[nH]cn3)C(N)=O)NC(=O)[C@H](CC(N)=O)NC(=O)[C@H](Cc3ccccc3)NC(=O)[C@H](C)NC(=O)[C@H](C)NC(=O)[C@H](CC(=O)O)NC(=O)[C@H](CC(=O)O)NC1=O)NC(=O)[C@H](CCC(C)C)NC(=O)[C@H](CC(=O)O)NC2=O (stereo partly drawn) [I-583, Ac-PL3-Asp-hLeu-B5-Asp-Asp-Ala-Ala-Phe-Asn-S8-Phe-BztA-His-NH2] | –
4520 | – | – | 2.13 | CC[C@H](C)[C@@H]1NC(=O)[C@H](CC(=O)O)NC(=O)[C@]2(CC=CCCCC3(CCCC=CCCCCCC[C@@](C)(C(=O)N[C@@H](Cc4ccccc4)C(=O)N[C@@H](Cc4csc5ccccc45)C(=O)N[C@@H](CCC(N)=O)C(N)=O)NC(=O)[C@H](CCC(N)=O)NC(=O)[C@H](Cc4ccccc4)NC(=O)[C@H](C)NC(=O)[C@H](C)NC(=O)[C@H](CCC(=O)O)NC(=O)C[C@H](CC(=O)O)NC3=O)NC1=O)CCCN2C(C)=O (stereo partly drawn) [I-675, Ac-PL3-Asp-Ile-B5-RbGlu-Glu-Ala-Ala-Phe-Gln-S8-Phe-BztA-Gln-NH2] | –
5000 | – | – | 1.95 | CC[C@H](C)[C@@H]1NC(=O)[C@H](CC(=O)O)NC(=O)[C@]2(CC=CCCCC3(CCCC=CCCCCCC[C@@](C)(C(=O)N[C@@H](Cc4ccccc4)C(=O)N[C@@H](Cc4csc5ccccc45)C(=O)N[C@@H](CCC(N)=O)C(N)=O)NC(=O)[C@H](CCC(N)=O)NC(=O)[C@H](Cc4ccccc4)NC(=O)[C@H](C)NC(=O)[C@H](C)NC(=O)[C@H](CCC(=O)O)NC(=O)C[C@H](C(=O)O)NC3=O)NC1=O)CCCN2C(C)=O (stereo partly drawn) [I-674, Ac-PL3-Asp-Ile-B5-isoDAsp-Glu-Ala-Ala-Phe-Gln-S8-Phe-BztA-Gln-NH2] | –
– | – | – | 2.01 | CC(=O)N1CCC[C@]12CC=CCCCC1(CCCC=CCCCCCC[C@@](C)(C(=O)N[C@@H](Cc3ccccc3)C(=O)N[C@@H](Cc3c[nH]c4ccccc34)C(=O)N[C@@H](C)C(N)=O)NC(=O)[C@H](C)NC(=O)[C@H](Cc3ccccc3)NC(=O)[C@H](C)NC(=O)[C@H](C)NC(=O)[C@H](CC(=O)O)NC(=O)[C@H](CC(=O)O)NC1=O)NC(=O)[C@H](C)NC(=O)[C@H](CC(=O)O)NC2=O (stereo partly drawn) [I-286, Ac-PL3-Asp-Ala-B5-Asp-Asp-Ala-Ala-Phe-Ala-S8-Phe-Trp-Ala-NH2] | IC50 [1, 3]: 4480 nM
